Results published in paper PMC12267471, “Discovery of natural scaffolds as HER2 inhibitors for breast cancer: virtual screening, molecular dynamics, and biological characterization with selectivity profiling” (Scientific Reports, 2025).
Like-named read-outs stand apart in the source and are kept apart here.

Assays:
Format in all cases: cell-based, human
SKBR3 cells [1] = experiment: MTT proliferation assay, SKBR3; conditions: Homo sapiens, SK-BR-3
BT-474 cells [2] = experiment: Cell cycle analysis by PI flow cytometry, BT-474; conditions: BT-474, 3.5 µM, 24 h (control 59%)
Description: To evaluate liquiritin’s impact on cell cycle progression, a propidium iodide (PI)-based flow cytometry assay was performed using the Cell Cycle Analysis Kit (ab139418, Abcam) following the manufacturer’s protocol. BT-474 and SKBR3 cells were seeded into 100 mm culture plates at a density of 1 × 10^6 cells/plate in RPMI 1640 medium supplemented with 10% FBS and incubated overnight. To synchronize cells in the G1 phase, cultures were rinsed twice with PBS and maintained in serum-reduced medium (0.5% FBS) for 48 h. Synchronized cells were subsequently treated with liquiritin at concentrations equivalent to its respective IC50 values (determined via prior proliferation assays) in serum-free media for 24 h.
Post-treatment, cells were detached using trypsin, washed with ice-cold PBS, and fixed in 66% ethanol at 4 °C for 2 h. Fixed cells were rehydrated in PBS and stained with a freshly prepared PI solution (1 mg/mL PI, 5,500 U/mL RNase A in PBS) for 30 min at 4 °C in the dark. DNA content was quantified using a BD FACS Calibur flow cytometer (BD Biosciences, San Jose, CA), with 10,000 events analyzed per sample. Cell cycle phase distributions (G0/G1, S, G2/M) were calculated from histogram data generated by Cell Quest software (BD Biosciences). All assays were performed in triplicate to ensure reproducibility.

BT-474 cells [3] = experiment: Annexin V-FITC/PI apoptosis detection, BT-474; conditions: BT-474, 3.5 µM, 48 h
Description: (§1) To evaluate the induction of apoptosis, the translocation of phosphatidylserine to the outer cell membrane, as a hallmark of early apoptosis, was detected by the binding of annexin V, using the Annexin V-FITC Early Apoptosis Detection Kit (BD BioVision). Cells were seeded at a density of 5 × 10^5 cells per 100 mm culture plate and allowed to adhere overnight. […] At the end of the treatment period, cells were harvested by trypsinization, washed twice with ice-cold PBS, and resuspended in 500 µL of chilled 1X Annexin V Binding Buffer. To each sample, 5 µL of Annexin V-FITC conjugate and 5 µL of propidium iodide (PI, 50 µg/mL) were added. The cell suspensions were incubated for 5 minutes on ice in the dark to allow for staining.
(§2) Flow cytometric analysis was performed using excitation at 488 nm and emission at 530 nm for FITC detection (FL1 channel) and phycoerythrin emission settings for PI detection (FL2 channel). Data acquisition and analysis were facilitated by Cell Quest software (BD Biosciences), with dot plots divided into four quadrants to distinguish different cell populations: lower left (LL) for viable, non-apoptotic cells (negative for both annexin V and PI); lower right (LR) for early apoptotic cells (annexin V-positive, PI-negative); upper left (UL) for dead or necrotic cells (PI-positive, annexin V-negative); and upper right (UR) for late apoptotic cells (double-positive). All assays were conducted in triplicate to ensure reliability and reproducibility.

SKBR3 cells [4] = experiment: Annexin V-FITC/PI apoptosis detection, SKBR3; conditions: SKBR3, 6.4 µM, 48 h
Description: as §1, §2

[5] = test system: HER2 protein in BT-474 cells; experiment: Western blot of p-HER2 and t-HER2, BT-474; conditions: BT-474, 5 µM, 72 h
Description: SKBR3 and BT-474 were plated in RPMI-1640 media, washed, and incubated for 72 h. They were lysed in cold lysis buffer, frozen, collected, sonicated, and centrifuged for 10 min under cooling. The stacking and resolving solutions for polyacrylamide gels were prepared using various solutions, including 30% acrylamide, 0.5 M Tris, 10% SDS, 10% Ammonium persulfate, and 0.005 mL TEMED in 3.4 mL water and 3.3 mL water respectively. The ReadyPrepTM protein extraction kit was used to extract total protein from samples. Protein concentration was determined using the Bradford Protein Assay Kit. Samples were mixed with Laemmli sample buffer, pH adjusted and boiled for five minutes at 95 °C before loading onto SDS-polyacrylamide gels. Proteins in each sample were mixed, boiled, and loaded onto SDS-polyacrylamide gels. They were separated using the SDS-PAGE method, using the TGX Stain-Free™ FastCast™ Acrylamide Kit and a Cleaver electrophoresis unit. Proteins were transferred from gels to PVDF membranes using transfer sandwiches. Filter paper, membrane, gel, and filter paper were stacked in a sandwich. Gels were blotted onto PVDF membranes via electrophoresis using a Bio-Rad Semi-dry Electroblotter for 30 min. […] The intensity of each band was quantitated using ImageLab.

## O=C1C[C@@H](c2ccc(O[C@@H]3O[C@H](CO)[C@@H](O)[C@H](O)[C@H]3O)cc2)Oc2cc(O)ccc21 [Liquiritin]
SKBR3 cells [1]; SKBR3, MTT, 48 h (Table S8), read-out: Cell growth inhibition IC50
  IC50: 6.4 µM
SKBR3 cells [1]; SKBR3, Table S9, read-out: IC50
  IC50: 6.4 ± 0.2 µM
BT-474 cells [2]
  proportion of cells in G1 phase: ~88%
BT-474 cells [3]
  early apoptosis (Annexin V+/PI−) cells: 22.05%
  late apoptosis (Annexin V+/PI+) cells: 11.44%
  necrosis: 3.7%
SKBR3 cells [4]
  early apoptotic population: 7.33%
  late apoptosis (Annexin V+/PI+) cells: 14.59%
  necrotic population: 2.84%
[5]
  total expression levels of HER2 protein: comparable suppressive effects
[5]; vs vehicle
  HER2 phosphorylation: significantly inhibited HER2 phosphorylation
